From patent US12448369B2 (Edgewise Therapeutics, Inc., priority 2023, dated 2025)

System: Porcine atria myofibrils (atrial myosin ATPase)
Assay: Myofibril ATPase assay, porcine atria myofibrils
Type: biochemical
Settings: Y75 value (no ‡ mark); porcine atria myofibrils
Method in brief: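 Coupled PK-LDH readout, NADH loss at 340 nm, kinetic 75 min. Porcine atria myofibrils, pCa buffer (PIPES/CaCl2/EGTA, pH 7.0). Slopes (mAU/min) normalized to vehicle = 100%, 4-parameter fit; Y75 or Y125 reported.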

Structure (SMILES) | Atrial EC25 [nM]
Cc1c(CC(=O)N[C@@H](C)c2ccc(F)cc2F)c(=O)[nH]c2ccc(Br)cc12 [compound 120] | 40
COc1ccc2[nH]c(=O)c(CC(=O)N[C@@H](C)c3ccc(F)cc3F)c(C)c2c1C#N [compound 1153] | 890
Cc1c(CC(=O)N[C@@H]2CCc3cc(C#N)cnc32)c(=O)[nH]c2ccc(F)cc12 [compound 1092] | 1130
C[C@@H](NC(=O)C(F)(F)c1cc2c(C#N)c(F)ccc2[nH]c1=O)c1ncc(C#N)cc1F (single isomer, unassigned) [Compound 2529] | 240
Cc1c(F)ccc2[nH]c(=O)c(C(F)(F)C(=O)N[C@@H](C)c3ncc(C#N)cn3)c(C#N)c12 (single isomer, unassigned) [compound 2512] | 1530
Cc1c(CC(=O)N[C@@H](C)c2ccc(F)cc2F)c(=O)[nH]c2ccc(O)c(C#N)c12 [compound 84] | 2520
Cc1c(C(F)(F)C(=O)N[C@@H]2CCc3cc(C#N)cnc32)c(=O)[nH]c2ccc(F)cc12 (single isomer, unassigned) [compound 2515] | 5060
C[C@H](NC(=O)[C@H](C)c1c(C(F)(F)F)c2c(F)cccc2[nH]c1=O)c1ccc(F)cc1F (single isomer, unassigned) [compound 98] | 530
CCc1c(CC(=O)N[C@@H](C)c2ncc(C#N)cn2)c(=O)[nH]c2ccc(F)c(C)c12 (single isomer, unassigned) [compound 2002] | 290
C[C@@H](NC(=O)Cc1cc2cc(F)c(F)cc2[nH]c1=O)c1ncc(C#N)cc1F (single isomer, unassigned) [compound 3] | 3400
Cc1c(CC(=O)N[C@@H](C)c2ncc(C3COC3)cn2)c(=O)[nH]c2ccc(F)c(F)c12 (single isomer, unassigned) [compound 2044] | 9190
Cc1c(CC(=O)N[C@H](C)c2ncc(C#N)cn2)c(=O)[nH]c2cccc(C#N)c12 (single isomer, unassigned) [compound 2069] | 40
N#Cc1ccc([C@@H](CO)NC(=O)Cc2c(C3CC3)c3cc(F)ccc3[nH]c2=O)c(F)c1 [compound 75] | 59370
Cc1c(CC(=O)N[C@@H](C)c2ccc(F)cc2F)c(=O)[nH]c2ccc(F)c(Br)c12 [compound 109] | 40
O=C(Cc1cc2c(F)c(F)ccc2[nH]c1=O)N[C@@H]1COc2ncccc21 (single isomer, unassigned) [compound 63] | 420

Same assay, conditions: porcine atria myofibrils; Y75 value (75% activity relative to no compound)

Structure (SMILES) | Atrial EC25 [nM]
Cc1nc(C#N)cnc1[C@@H](C)NC(=O)Cc1c(C)c2c(C)nccc2[nH]c1=O [compound 491] | 1570
Cc1c(CC(=O)N[C@H](CO)c2ncc(C#N)cc2F)c(=O)[nH]c2cnnc(C#N)c12 [compound 163] | 940
C#Cc1nccc2[nH]c(=O)c(CC(=O)N[C@@H](C)c3ccc(F)cc3F)cc12 [compound 431] | 11130

Target: T1, Porcine ventricle myofibrils (ventricular myosin ATPase) (Sus scrofa, UniProt P79293)
T1 construct: Myofibrils from porcine cardiac muscle was isolated from the left ventricle of Yucatan minipigs; tissue Exemplar Genetics; host or cells: left ventricle of Yucatan minipigs, myofibrils prepared in house
T1 sequence (P79293 whole entry): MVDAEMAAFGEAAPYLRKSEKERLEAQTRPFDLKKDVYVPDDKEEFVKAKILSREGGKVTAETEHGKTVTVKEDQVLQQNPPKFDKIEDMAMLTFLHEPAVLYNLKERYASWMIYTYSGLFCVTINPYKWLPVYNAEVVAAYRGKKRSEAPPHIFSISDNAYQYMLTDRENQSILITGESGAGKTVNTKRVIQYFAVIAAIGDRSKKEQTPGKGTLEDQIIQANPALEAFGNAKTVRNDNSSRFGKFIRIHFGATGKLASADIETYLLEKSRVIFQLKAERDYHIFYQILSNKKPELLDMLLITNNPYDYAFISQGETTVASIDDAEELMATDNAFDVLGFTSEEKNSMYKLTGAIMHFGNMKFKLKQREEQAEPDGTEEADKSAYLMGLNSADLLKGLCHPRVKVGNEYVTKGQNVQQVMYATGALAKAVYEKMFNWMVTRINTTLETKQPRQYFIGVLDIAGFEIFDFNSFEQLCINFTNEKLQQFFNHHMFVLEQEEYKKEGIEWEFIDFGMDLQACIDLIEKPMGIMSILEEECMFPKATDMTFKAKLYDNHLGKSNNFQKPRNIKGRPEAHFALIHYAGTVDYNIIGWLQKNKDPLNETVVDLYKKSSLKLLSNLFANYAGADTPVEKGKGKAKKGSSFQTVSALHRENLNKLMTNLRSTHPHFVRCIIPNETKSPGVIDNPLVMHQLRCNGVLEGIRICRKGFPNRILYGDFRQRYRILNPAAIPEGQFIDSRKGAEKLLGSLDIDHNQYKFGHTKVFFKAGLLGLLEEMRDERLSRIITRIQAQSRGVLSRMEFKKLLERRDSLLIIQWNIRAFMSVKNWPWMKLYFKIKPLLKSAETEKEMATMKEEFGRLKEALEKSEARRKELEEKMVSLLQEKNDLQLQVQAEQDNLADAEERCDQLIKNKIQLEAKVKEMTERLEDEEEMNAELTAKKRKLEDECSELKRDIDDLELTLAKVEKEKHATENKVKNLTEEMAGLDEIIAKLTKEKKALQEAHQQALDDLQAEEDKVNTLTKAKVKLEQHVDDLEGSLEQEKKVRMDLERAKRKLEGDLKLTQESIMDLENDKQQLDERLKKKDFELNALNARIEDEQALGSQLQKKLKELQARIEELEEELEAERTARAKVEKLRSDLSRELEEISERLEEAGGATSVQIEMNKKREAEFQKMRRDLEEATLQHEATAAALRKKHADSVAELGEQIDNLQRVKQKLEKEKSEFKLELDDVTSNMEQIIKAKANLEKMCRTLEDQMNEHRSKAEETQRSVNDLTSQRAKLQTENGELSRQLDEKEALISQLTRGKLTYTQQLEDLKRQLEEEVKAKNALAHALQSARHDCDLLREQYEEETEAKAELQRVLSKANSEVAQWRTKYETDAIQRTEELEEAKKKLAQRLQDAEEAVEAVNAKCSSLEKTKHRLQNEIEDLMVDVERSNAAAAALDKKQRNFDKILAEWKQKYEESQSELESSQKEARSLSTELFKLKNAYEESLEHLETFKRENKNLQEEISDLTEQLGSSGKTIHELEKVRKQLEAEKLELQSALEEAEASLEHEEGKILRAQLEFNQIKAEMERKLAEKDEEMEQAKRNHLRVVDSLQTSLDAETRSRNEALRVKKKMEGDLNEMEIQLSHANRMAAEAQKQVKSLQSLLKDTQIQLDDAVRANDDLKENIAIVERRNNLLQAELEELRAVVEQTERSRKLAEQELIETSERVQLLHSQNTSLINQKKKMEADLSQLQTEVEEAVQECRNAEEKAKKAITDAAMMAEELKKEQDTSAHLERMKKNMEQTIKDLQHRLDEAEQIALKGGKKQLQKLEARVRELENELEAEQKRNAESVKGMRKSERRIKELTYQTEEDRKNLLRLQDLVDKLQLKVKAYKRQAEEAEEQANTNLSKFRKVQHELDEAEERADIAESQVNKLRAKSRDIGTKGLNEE
Assay: Myofibril ATPase assay, porcine ventricle myofibrils
Type: biochemical, porcine (Yucatan minipigs)
Settings: Y75 value (no ‡ mark); porcine ventricle myofibrils
Method in brief: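 In a coupled enzyme format, ADP from myofibril ATPase drives NADH oxidation, monitored kinetically at 340 nm for 75 min using minipig ventricle myofibrils. Effective concentrations giving 25% loss or gain of activity relative to vehicle were calculated from 4-parameter fits.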

Structure (SMILES) | Ventricular EC25 [nM]
Cc1c(CC(=O)N[C@@H](C)c2ccc(F)cc2F)c(=O)[nH]c2ccc(Br)cc12 [compound 120] | 250
COc1ccc2[nH]c(=O)c(CC(=O)N[C@@H](C)c3ccc(F)cc3F)c(C)c2c1C#N [compound 1153] | 2860
Cc1c(CC(=O)N[C@@H]2CCc3cc(C#N)cnc32)c(=O)[nH]c2ccc(F)cc12 [compound 1092] | 2410
C[C@@H](NC(=O)C(F)(F)c1cc2c(C#N)c(F)ccc2[nH]c1=O)c1ncc(C#N)cc1F (single isomer, unassigned) [Compound 2529] | 350
Cc1c(F)ccc2[nH]c(=O)c(C(F)(F)C(=O)N[C@@H](C)c3ncc(C#N)cn3)c(C#N)c12 (single isomer, unassigned) [compound 2512] | 33470
Cc1c(CC(=O)N[C@@H](C)c2ccc(F)cc2F)c(=O)[nH]c2ccc(O)c(C#N)c12 [compound 84] | 55560
Cc1c(C(F)(F)C(=O)N[C@@H]2CCc3cc(C#N)cnc32)c(=O)[nH]c2ccc(F)cc12 (single isomer, unassigned) [compound 2515] | 100000
C[C@H](NC(=O)[C@H](C)c1c(C(F)(F)F)c2c(F)cccc2[nH]c1=O)c1ccc(F)cc1F (single isomer, unassigned) [compound 98] | 4120
CCc1c(CC(=O)N[C@@H](C)c2ncc(C#N)cn2)c(=O)[nH]c2ccc(F)c(C)c12 (single isomer, unassigned) [compound 2002] | 210
C[C@@H](NC(=O)Cc1cc2cc(F)c(F)cc2[nH]c1=O)c1ncc(C#N)cc1F (single isomer, unassigned) [compound 3] | 310
Cc1c(CC(=O)N[C@@H](C)c2ncc(C3COC3)cn2)c(=O)[nH]c2ccc(F)c(F)c12 (single isomer, unassigned) [compound 2044] | 5840
Cc1c(CC(=O)N[C@H](C)c2ncc(C#N)cn2)c(=O)[nH]c2cccc(C#N)c12 (single isomer, unassigned) [compound 2069] | 2760
N#Cc1ccc([C@@H](CO)NC(=O)Cc2c(C3CC3)c3cc(F)ccc3[nH]c2=O)c(F)c1 [compound 75] | 610
Cc1c(CC(=O)N[C@@H](C)c2ccc(F)cc2F)c(=O)[nH]c2ccc(F)c(Br)c12 [compound 109] | 130
O=C(Cc1cc2c(F)c(F)ccc2[nH]c1=O)N[C@@H]1COc2ncccc21 (single isomer, unassigned) [compound 63] | 62720

Same assay, conditions: porcine ventricle myofibrils; Y75 value

Structure (SMILES) | Ventricular EC25 [nM]
Cc1nc(C#N)cnc1[C@@H](C)NC(=O)Cc1c(C)c2c(C)nccc2[nH]c1=O [compound 491] | 11590
Cc1c(CC(=O)N[C@H](CO)c2ncc(C#N)cc2F)c(=O)[nH]c2cnnc(C#N)c12 [compound 163] | 100000
C#Cc1nccc2[nH]c(=O)c(CC(=O)N[C@@H](C)c3ccc(F)cc3F)cc12 [compound 431] | 50880

System: Rabbit Psoas myofibrils (skeletal myosin ATPase)
Assay: Myofibril ATPase assay, rabbit psoas (skeletal) myofibrils
Type: biochemical
Settings: Y75 value (no ‡ mark); rabbit psoas myofibrils
Method in brief: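 Readout: A340 decline from NADH oxidation, PK/LDH-coupled to ADP release; kinetic reads over 75 min. Buffer: pCa (PIPES, CaCl2, EGTA), pH 7.0. Linear-regression slopes vs vehicle, 4PL fit; reported as concentration giving 75% (Y75) or 125% (Y125) of vehicle activity.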

Structure (SMILES) | Skeletal EC25 [µM]
Cc1c(CC(=O)N[C@@H](C)c2ccc(F)cc2F)c(=O)[nH]c2ccc(Br)cc12 [compound 120] | 0.05
COc1ccc2[nH]c(=O)c(CC(=O)N[C@@H](C)c3ccc(F)cc3F)c(C)c2c1C#N [compound 1153] | 0.66
Cc1c(CC(=O)N[C@@H]2CCc3cc(C#N)cnc32)c(=O)[nH]c2ccc(F)cc12 [compound 1092] | 0.36
C[C@@H](NC(=O)C(F)(F)c1cc2c(C#N)c(F)ccc2[nH]c1=O)c1ncc(C#N)cc1F (single isomer, unassigned) [Compound 2529] | 0.24
Cc1c(CC(=O)N[C@@H](C)c2ccc(F)cc2F)c(=O)[nH]c2ccc(O)c(C#N)c12 [compound 84] | 7.24
Cc1c(C(F)(F)C(=O)N[C@@H]2CCc3cc(C#N)cnc32)c(=O)[nH]c2ccc(F)cc12 (single isomer, unassigned) [compound 2515] | 100.00
C[C@H](NC(=O)[C@H](C)c1c(C(F)(F)F)c2c(F)cccc2[nH]c1=O)c1ccc(F)cc1F (single isomer, unassigned) [compound 98] | 0.06
CCc1c(CC(=O)N[C@@H](C)c2ncc(C#N)cn2)c(=O)[nH]c2ccc(F)c(C)c12 (single isomer, unassigned) [compound 2002] | 0.11
C[C@@H](NC(=O)Cc1cc2cc(F)c(F)cc2[nH]c1=O)c1ncc(C#N)cc1F (single isomer, unassigned) [compound 3] | 2.33
Cc1c(CC(=O)N[C@@H](C)c2ncc(C3COC3)cn2)c(=O)[nH]c2ccc(F)c(F)c12 (single isomer, unassigned) [compound 2044] | 29.36
Cc1c(CC(=O)N[C@H](C)c2ncc(C#N)cn2)c(=O)[nH]c2cccc(C#N)c12 (single isomer, unassigned) [compound 2069] | 0.49
N#Cc1ccc([C@@H](CO)NC(=O)Cc2c(C3CC3)c3cc(F)ccc3[nH]c2=O)c(F)c1 [compound 75] | 15.21
Cc1c(CC(=O)N[C@@H](C)c2ccc(F)cc2F)c(=O)[nH]c2ccc(F)c(Br)c12 [compound 109] | 0.01
O=C(Cc1cc2c(F)c(F)ccc2[nH]c1=O)N[C@@H]1COc2ncccc21 (single isomer, unassigned) [compound 63] | 1.55

Same assay, conditions: rabbit psoas myofibrils; Y75 value

Structure (SMILES) | Skeletal EC25 [µM]
Cc1nc(C#N)cnc1[C@@H](C)NC(=O)Cc1c(C)c2c(C)nccc2[nH]c1=O [compound 491] | 7.59
Cc1c(CC(=O)N[C@H](CO)c2ncc(C#N)cc2F)c(=O)[nH]c2cnnc(C#N)c12 [compound 163] | 12.34
C#Cc1nccc2[nH]c(=O)c(CC(=O)N[C@@H](C)c3ccc(F)cc3F)cc12 [compound 431] | 0.80

Same assay, conditions: ‡ Y125 value, not a Y75 value (125% activity relative to no compound); rabbit psoas myofibrils

Structure (SMILES) | Skeletal EC25
Cc1c(F)ccc2[nH]c(=O)c(C(F)(F)C(=O)N[C@@H](C)c3ncc(C#N)cn3)c(C#N)c12 (single isomer, unassigned) [compound 2512] | 100.00‡ μM
